The results in this text go back to PubChem BioAssay (NCI).

Among the test systems are 786-0 renal; HCC-2998 colon; IGROV1 ovarian; K-562 leukemia; MALME-3M melanoma; MCF7 breast; NCI-H226 lung; NCI-H460 lung; OVCAR-8 ovarian; SF-268 CNS; SK-MEL-28 melanoma; SN12C renal; SW-620 colon; U251 CNS.
Holding throughout (test): NCI-60 cell line screen, 48 h

Molecules are shown by their SMILES.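 Exposure lasted 48 hours, with cells grown in 96-well plates and compounds tested at five concentrations. The concentration for 50% growth inhibition is given as GI50. TGI marks complete inhibition of growth.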

As for `O=C1OC(C2Cc3ccc4c(c3C2=O)CCCC4)c2ccccc21` (stereo not drawn), the TGI is above 100 µM with 786-0 renal; 94.6 µM with HCC-2998 colon; above 100 µM with IGROV1 ovarian; above 100 µM with K-562 leukemia; above 100 µM in the test with MALME-3M melanoma; above 100 µM in the test on MCF7 breast. The TGI is 59.2 µM in the test on NCI-H226 lung; above 100 µM in the test with NCI-H460 lung; above 100 µM in the test with OVCAR-8 ovarian; above 100 µM with SF-268 CNS; above 100 µM in the test with SK-MEL-28 melanoma; above 100 µM in the test with SN12C renal. For the same compound, the TGI with SW-620 colon and in the test on U251 CNS was above 100 µM throughout.

As for `COc1cc(/C=C2\CC(C)C/C(=C\c3ccc(O)c(OC)c3)C2=O)ccc1O` (stereo not drawn), the TGI in the test with 786-0 renal is above 100 µM; with HCC-2998 colon it was 12.5 µM; with IGROV1 ovarian it was 5.88 µM; in the test with K-562 leukemia it was above 73.5 µM; in the test on MALME-3M melanoma, 8.75 µM; with MCF7 breast, 19.3 µM. Moreover, the TGI with NCI-H226 lung turned out to be 17.6 µM; in the test on NCI-H460 lung, 9.45 µM; in the test on OVCAR-8 ovarian, 32.4 µM; in the test on SF-268 CNS, 20.7 µM; in the test on SK-MEL-28 melanoma, 8.95 µM; with SN12C renal it was 8.35 µM. Also, the TGI in the test with SW-620 colon was found to be 5.41 µM; in the test on U251 CNS it was 5.59 µM.

Take `CC(C)(C)Cc1cc(O)ccc1O`: the TGI in the test on 786-0 renal, in the test with HCC-2998 colon, in the test with IGROV1 ovarian, with K-562 leukemia, with MALME-3M melanoma and with MCF7 breast was above 100 µM throughout. Moreover, the TGI with NCI-H226 lung, in the test with NCI-H460 lung, with OVCAR-8 ovarian, with SF-268 CNS, in the test with SK-MEL-28 melanoma and with SN12C renal was above 100 µM throughout. Besides, the TGI in the test on SW-620 colon and with U251 CNS was above 100 µM in each case.

Turning to `CNC(=O)OCc1nc(N=[N+]=[N-])n(C)c1COC(=O)NC`, the TGI in the test on 786-0 renal is above 10 µM; with HCC-2998 colon, above 100 µM; in the test with IGROV1 ovarian, above 100 µM; in the test with K-562 leukemia, above 100 µM; with MALME-3M melanoma, above 100 µM; in the test with MCF7 breast, above 100 µM. Besides, the TGI with NCI-H226 lung, in the test with NCI-H460 lung, in the test with OVCAR-8 ovarian, in the test with SF-268 CNS, in the test with SK-MEL-28 melanoma and in the test with SN12C renal was above 100 µM throughout. The TGI with SW-620 colon and in the test with U251 CNS was above 100 µM throughout.

With `O=c1cc(-c2ccc3ccccc3c2)[nH]c2ncccc12`, the TGI with 786-0 renal was above 100 µM; in the test on HCC-2998 colon, above 100 µM; with IGROV1 ovarian, above 100 µM; in the test with K-562 leukemia, 12 µM; with MALME-3M melanoma, above 100 µM; in the test on MCF7 breast, above 100 µM. For the same compound, the TGI with NCI-H226 lung, in the test with NCI-H460 lung, in the test with OVCAR-8 ovarian, with SF-268 CNS, in the test on SK-MEL-28 melanoma and with SN12C renal was above 100 µM in each case. Also, the TGI in the test with SW-620 colon and in the test with U251 CNS was above 100 µM in each case. Besides, the GI50 with NCI-H460 lung was 3.79 µM; with U251 CNS, 4.35 µM.

Turning to `CC(CC(C)[C@H]1CCC2[C@H]3C(CC(=O)[C@@]21C)[C@@]1(C)CCC(O)C[C@H]1C[C@@H]3O)C(=O)O` (stereo partly drawn), the TGI with 786-0 renal, with HCC-2998 colon, in the test with IGROV1 ovarian, in the test on K-562 leukemia, with MALME-3M melanoma and in the test with MCF7 breast was above 100 µM throughout. Further, the TGI in the test with NCI-H226 lung, with NCI-H460 lung, in the test with OVCAR-8 ovarian, with SF-268 CNS, in the test on SK-MEL-28 melanoma and in the test on SN12C renal was above 100 µM in each case. The TGI in the test on SW-620 colon and in the test on U251 CNS was above 100 µM throughout.

Take `Nc1ncnc2c1ncn2[C@@H]1C[C@H](NO)[C@@H](O)[C@H]1O`: the TGI with 786-0 renal, with HCC-2998 colon, in the test on IGROV1 ovarian, with K-562 leukemia, in the test on MALME-3M melanoma and in the test on MCF7 breast was above 100 µM in each case. Further, the TGI with NCI-H226 lung, in the test on NCI-H460 lung, in the test on OVCAR-8 ovarian, in the test with SF-268 CNS, in the test on SK-MEL-28 melanoma and with SN12C renal was above 100 µM each time. The TGI in the test on SW-620 colon and in the test on U251 CNS was above 100 µM in each case.

With `CCNC1=C(NC(=O)c2ccc(OC)cc2)C(=O)c2ccccc2C1=O`, the TGI was above 100 µM in the test on 786-0 renal; above 100 µM in the test on HCC-2998 colon; above 100 µM with IGROV1 ovarian; above 100 µM in the test on K-562 leukemia; 50.9 µM with MALME-3M melanoma; above 100 µM in the test with MCF7 breast. In addition, the TGI in the test on NCI-H226 lung, in the test with NCI-H460 lung, with OVCAR-8 ovarian, in the test with SF-268 CNS, with SK-MEL-28 melanoma and with SN12C renal was above 100 µM throughout. In addition, the TGI in the test on SW-620 colon and in the test on U251 CNS was above 100 µM in each case.

For `[O-]/[N+](=N/c1ncc(-c2ccccc2)cn1)c1ncc(-c2ccccc2)cn1`, the TGI in the test with 786-0 renal, in the test on HCC-2998 colon, with IGROV1 ovarian, in the test on K-562 leukemia, with MALME-3M melanoma and in the test with MCF7 breast was above 100 µM in each case. In addition, the TGI in the test with NCI-H226 lung, with NCI-H460 lung, in the test on OVCAR-8 ovarian, in the test with SF-268 CNS, in the test with SK-MEL-28 melanoma and with SN12C renal was above 100 µM throughout. The TGI in the test on SW-620 colon and in the test on U251 CNS was above 100 µM each time.
